# Source: patent publication US20200361871A1 (Enterprise Therapeutics Ltd., priority 2018, published 2020)
# Biological target: human TMEM16A (TMEM16Aabc variant) (Homo sapiens, UniProt Q5XXA6, DEL476-501, form not given)
# Experiment: Automated whole-cell patch clamp (Qpatch) TMEM16A potentiator assay in FRT cells stably expressing human TMEM16A
# Type: cell-based
# Conditions: for % Potentiation @ 3.33 μM Avg: 3.33 μM solution of test compound, percentage increase of baseline TMEM16A current; for EC50: calculated EC50, Qpatch TMEM16A current at +70 mV
# Procedure, shortened: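 Potentiation was read as the rise in peak +70 mV current over baseline (%), from cumulative 5-min additions of compound. Recordings used whole-cell automated patch of FRT cells stably carrying human TMEM16Aabc, with pipette Ca2+ buffered to give ~20% maximal current. EC50 and efficacy came from concentration-response fits.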
# Chain of human TMEM16A (TMEM16Aabc variant) (Q5XXA6 with tags, fused parts or gaps DEL476-501): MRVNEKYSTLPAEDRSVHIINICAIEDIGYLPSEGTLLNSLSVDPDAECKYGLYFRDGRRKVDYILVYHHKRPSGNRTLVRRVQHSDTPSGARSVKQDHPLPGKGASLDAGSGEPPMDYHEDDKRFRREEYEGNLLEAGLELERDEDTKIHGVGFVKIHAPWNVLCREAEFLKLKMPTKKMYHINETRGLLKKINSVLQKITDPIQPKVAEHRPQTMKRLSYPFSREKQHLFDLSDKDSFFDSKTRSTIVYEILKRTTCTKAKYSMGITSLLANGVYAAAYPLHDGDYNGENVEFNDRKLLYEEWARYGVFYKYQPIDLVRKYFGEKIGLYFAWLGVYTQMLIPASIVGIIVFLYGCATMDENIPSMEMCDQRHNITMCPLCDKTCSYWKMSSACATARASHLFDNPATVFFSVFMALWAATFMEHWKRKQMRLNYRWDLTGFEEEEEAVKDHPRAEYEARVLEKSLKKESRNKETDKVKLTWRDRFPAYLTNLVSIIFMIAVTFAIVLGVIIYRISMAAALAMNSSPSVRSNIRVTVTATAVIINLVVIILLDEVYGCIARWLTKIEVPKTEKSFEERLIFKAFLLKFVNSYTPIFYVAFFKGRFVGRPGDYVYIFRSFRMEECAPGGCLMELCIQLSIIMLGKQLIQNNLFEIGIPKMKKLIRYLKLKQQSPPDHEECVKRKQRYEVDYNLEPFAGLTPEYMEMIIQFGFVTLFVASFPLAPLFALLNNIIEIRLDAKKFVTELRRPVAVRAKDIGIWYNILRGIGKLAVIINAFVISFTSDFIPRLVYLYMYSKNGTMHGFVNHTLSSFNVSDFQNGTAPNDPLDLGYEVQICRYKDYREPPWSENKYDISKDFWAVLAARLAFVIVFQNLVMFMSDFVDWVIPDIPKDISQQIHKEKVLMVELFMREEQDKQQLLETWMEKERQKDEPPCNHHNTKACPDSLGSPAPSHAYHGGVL
Structure (SMILES),% Potentiation @ 3.33 μM Avg,EC50
"CC(C)(CCNC(=O)OC(C)(C)C)NC(=O)c1cc(NC(=O)Cc2cc(Cl)ccc2O)ccn1 [Example 1.8, tert-Butyl N-[3-[[4-[[2-(5-chloro-2-hydroxy-phenyl)acetyl]amino]pyridine-2-carbonyl]amino]-3-methyl-butyl]carbamate]",300%,0.41 µM
"CC(C)(C)NC(=O)c1cc(NC(=O)Cc2cccc(F)c2F)ccn1 [Example 23.8, N-tert-Butyl-4-[[2-(2,3-difluorophenyl)acetyl]amino]pyridine-2-carboxamide]",122%,–
"COCC(C)(C)NC(=O)c1cccc(NC(=O)Cc2ccccc2O)c1 [Example 1.9, 3-[[2-(2-Hydroxyphenyl)acetyl]amino]-N-(2-methoxy-1,1-dimethyl-ethyl)benzamide]",79%,4.2 µM
"C#CC(C)(C)NC(=O)c1cc(NC(=O)Cc2ccc(C(F)(F)F)cc2)ccn1 [Example 5.35, N-(1,1-Dimethylprop-2-ynyl)-4-[[2-[4-(trifluoromethyl)phenyl]acetyl]amino]pyridine-2-carboxamide]",106%,0.18 µM
"C[C@@H](NC(=O)Nc1ccnc(C(=O)NC(C)(C)C)c1)c1ccccc1 [Example 64.3, N-tert-Butyl-4-[[(1R)-1-phenylethyl]carbamoylamino]pyridine-2-carboxamide]",70%,–
"CC(C)(C)NC(=O)c1cc(NC(=O)Cc2cc(F)ccc2O)ccn1 [Example 20, N-tert-Butyl-4-[[2-(5-fluoro-2-hydroxy-phenyl)acetyl]amino]pyridine-2-carboxamide]",111%,0.22 µM
"CC(C)(C)NC(=O)c1cc(NC(=O)C2CCc3c(Cl)ccc(O)c32)ccn1 (single isomer, unassigned) [Example 57a, N-tert-butyl-4-[[(1S) or (1R)-4-chloro-7-hydroxy-indane-1-carbonyl]amino]pyridine-2-carboxamide]",285%,0.51 µM
"CCC(C)(C)NC(=O)c1cc(NC(=O)Cc2ccc(F)cc2O)ccn1 [Example 3.1a, N-(1,1-Dimethylpropyl)-4-[[2-(4-fluoro-2-hydroxy-phenyl)acetyl]amino]pyridine-2-carboxamide]",128%,0.18 µM
"CC(C)(C)NC(=O)c1cc(NC(=O)Cc2ccc(Cl)cc2O)ccn1 [Example 3.6b, N-tert-Butyl-4-[[2-(4-chloro-2-hydroxy-phenyl)acetyl]amino]pyridine-2-carboxamide]",205%,0.12 µM
"COc1ccc(F)c(F)c1CC(=O)Nc1cccc(C(=O)NC(C)(C)C)c1 [Example 4.8, N-tert-Butyl-3-[[2-(2,3-difluoro-6-methoxy-phenyl)acetyl]amino]benzamide]",55%,2.07 µM
"O=C(Cc1cc(Cl)ccc1O)Nc1ccnc(C(=O)Nc2ncc[nH]2)c1 [Example 32.9, 4-[[2-(5-Chloro-2-hydroxy-phenyl)acetyl]amino]-N-(1H-imidazol-2-yl)pyridine-2-carboxamide]",31%,–
"CCC(C)(C)NC(=O)c1cc(NC(=O)Cc2cc(Cl)ccc2O)ccn1 [Example 9.2, 4-[[2-(5-Chloro-2-hydroxy-phenyl)acetyl]amino]-N-(1,1-dimethylpropyl)pyridine-2-carboxamide]",196%,0.19 µM
"C[C@](C#N)(CO)NC(=O)c1cc(NC(=O)Cc2cc(Cl)ccc2O)ccn1 (single isomer, unassigned) [Example 46b, 4-[[2-(5-Chloro-2-hydroxy-phenyl)acetyl]amino]-N-[(1S)-1-cyano-2-hydroxy-1-methyl-ethyl]pyridine-2-carboxamide or 4-[[2-(5-chloro-2-hydroxy-phenyl)acetyl]amino]-N-[(1R)-1-cyano-2-hydroxy-1-methyl-ethyl]pyridine-2-carboxamide]",215%,–
